Read-outs that look alike come from different tables or passages of the source.
Columns and labels:
Assay type in all cases: cell-based
[1] = test system: NCI-H358 cells (KRAS G12C mutation); experiment: Proliferation inhibition measured by CTG (CellTiter Glo), NCI-H358; details: Homo sapiens, read-out: IC50 (H358)
Text: (§1) NCI-H358 is a human non-small cell lung cancer cell line with KRAS G12C mutation; PANC-1 and AsPC-1 are pancreatic cancer cell lines with KRAS G12D mutation; AGS is a gastric cancer cell line with KRAS G12D mutation; A427 is a lung cancer cell line with KRAS G12D mutation; THP-1 is a leukemia cell line with NRAS G12D mutation; Hs 578T is a breast cancer cell line with HRAS G12D mutation; SW480 is a colon cancer cell lines with KRAS G12V mutation; A375 is a wild type malignant melanoma cell line. The proliferation inhibitory effect of the compounds on various mutations was evaluated by determining the proliferation inhibitory activity of the compounds on these cell lines.
(§2) The assay was conducted on either 384-well plates or 96-well plates. The procedures are as follows:
(§3) The cell suspensions were added to 384- or 96-well plates (384-well plate: 40 μL; 96-well plate: […]) except for peripheral wells. The plates were incubated in a carbon dioxide incubator overnight. Prepared compounds (10 concentration gradients by serial 3-fold dilution) were added to the wells. The cell plates were incubated in a carbon dioxide incubator for 120 hours. CellTiter Glo reagent (384 well plate: 25 μL; 96 well plate: 100 μL) was added to the 384- or 96-well plates. The plates were shaken for 10 minutes away from light, and incubated for 10 minutes. The plates were read by EnVision system. Inhibition curves were plotted using XLFit and IC50 values were calculated. “IC50>10 μM” is denoted by “*”, “10 μM≥IC50>1 μM” is denoted by “**”, “1 μM≥IC50>100 nM” is denoted by “***”, and “IC50≤100 nM” is denoted by “****”.

[2] = test system: A375 wild type malignant melanoma cell line; experiment: Proliferation inhibition measured by CTG (CellTiter Glo), A375; details: Homo sapiens, A-375, read-out: IC50 (A375)
Text: as §1, §2, §3

[3] = test system: AsPC-1 pancreatic cancer cell line (KRAS G12D mutation); experiment: Proliferation inhibition measured by CTG (CellTiter Glo), AsPC-1; details: Homo sapiens, ASPC1
Text: as §1, §2, §3

[4] = test system: SW480 colon cancer cell line (KRAS G12V mutation); experiment: Proliferation inhibition measured by CTG (CellTiter Glo), SW480; details: Homo sapiens, Table 3, 120 hours incubation, class symbol, read-out: IC50 (SW480)
Text: as §1, §2, §3

[5] = test system: AGS gastric cancer cell line (KRAS G12D mutation); experiment: Proliferation inhibition measured by CTG (CellTiter Glo), AGS; details: Table 3; CTG, 120 hours incubation; class symbol; read-out: IC50 (AGS)
Text: as §1, §2, §3

[6] = Table 1, CTG, 120 hours incubation, class symbol
[7] = Table 3, CTG, 120 hours incubation, class symbol

SMILES	IC50 [1, 6] [µM]	IC50 [2, 6] [µM]	IC50 [3, 6] [µM]	IC50 [4] [nM]	IC50 [5] [nM]	IC50 [1, 7] [µM]	IC50 [2, 7] [µM]	IC50 ([1]; Table 1, number in parentheses, no unit printed in Table 1 (Table 2 gives the same values of compound 2 in μM)) [µM]	IC50 ([2]; Table 1, number in parentheses, unit not given in Table 1 (Table 2 gives the same value in μM)) [µM]	IC50 ([3]; Table 1, number in parentheses, unit not given in Table 1 (legend and Table 2 use μM)) [µM]
Cc1ncc2n1CCN(c1nc(OC[C@@H]3CCCN3C)nc3c1CCN(c1cccc4cccc(Cl)c14)C3)C2 [Compound 5]	1 to 10	1 to 10	1 to 10	–	–	–	–	–	–	–
CN1CCC[C@H]1COc1nc2c(c(N3CCn4cncc4C3)n1)CO[C@H](c1cccc3cccc(Cl)c13)C2 [Compound 3]	0.1 to 1	1 to 10	1 to 10	–	–	–	–	–	–	–
C[C@@H]1Cn2cnc(F)c2CN1c1nc(OC[C@@H]2CCCCN2C)nc2c1CCN(c1cc(F)cc3cccc(Cl)c13)C2 [Compound 115]	–	–	–	≤ 100	≤ 100	≤ 0.1	≤ 0.1	–	–	–
C[C@@H]1Cn2cnc(F)c2CN1c1nc(OC[C@@H]2CCCCN2C)nc2c1CCN(c1cccc3cccc(F)c13)C2 [Compound 113]	–	–	–	≤ 100	≤ 100	≤ 0.1	≤ 0.1	–	–	–
C[C@@H]1Cn2cncc2CN1c1nc(O[C@H]2CCN(C)C2)nc2c1CCN(c1cccc3cccc(Cl)c13)C2 [Compound 71]	–	–	–	100 to 1000	100 to 1000	0.1 to 1	1 to 10	–	–	–
C[C@@H]1Cn2cnc(F)c2CN1c1nc(OC[C@@H]2CCCN2C)nc2cc(-c3cc(O)cc4cccc(Cl)c34)ccc12 [Compound 91]	–	–	–	≤ 100	≤ 100	≤ 0.1	≤ 0.1	–	–	–
C[C@@H]1Cn2cnc(F)c2CN1c1nc(OC[C@@H]2CCCN2C)nc2c1CO[C@H](c1cccc3cccc(Cl)c13)C2 [Compound 104]	–	–	–	100 to 1000	100 to 1000	0.1 to 1	0.1 to 1	–	–	–
C[C@@H]1Cn2cnc(Cl)c2CN1c1nc(OCC2CCCN2C)nc2c1CCN(c1cccc3cccc(Cl)c13)C2 (stereo partly drawn) [Compound 86]	–	–	–	≤ 100	≤ 100	≤ 0.1	≤ 0.1	–	–	–
CC(=O)Nc1cc(N2CCc3c(nc(OC[C@@H]4CCCN4C)nc3N3Cc4c(F)ncn4C[C@H]3C)C2)c2c(Cl)cccc2c1 [Compound 111]	–	–	–	100 to 1000	1000 to 10000	1 to 10	1 to 10	–	–	–
C[C@@H]1Cn2cnc(F)c2CN1c1nc(OC[C@@H]2CCCN2C)nc2c1CCN(c1cc(O)c(Cl)c3cccc(Cl)c13)C2 [Compound 105]	–	–	–	≤ 100	≤ 100	≤ 0.1	≤ 0.1	–	–	–
C[C@@H]1Cn2cncc2CN1c1nc(OC[C@@H]2CCCN2C)nc2c1CCN(c1cccc3c1CCCC3)C2 [Compound 84]	–	–	–	100 to 1000	100 to 1000	1 to 10	1 to 10	–	–	–
C[C@@H]1Cn2cncc2CN1c1nc(OC[C@@H]2CCCN2C)nc2c1CCN(c1cc(O)cc3ccccc13)C2 [Compound 66]	–	–	–	100 to 1000	≤ 100	≤ 0.1	0.1 to 1	–	–	–
C#Cc1c(F)ccc2cc(O)cc(N3CCc4c(nc(OC[C@@H]5CCCN5C)nc4N4Cc5c(F)ncn5C[C@H]4C)C3)c12 [Compound 108]	–	–	–	≤ 100	≤ 100	0.1 to 1	0.1 to 1	–	–	–
C[C@@H]1Cn2cncc2CN1c1nc(OC[C@@H]2CCCCN2C)nc2c1CCN(c1cccc3cccc(Cl)c13)C2 [Compound 64]	–	–	–	≤ 100	≤ 100	≤ 0.1	≤ 0.1	–	–	–
C[C@@H]1Cn2cncc2CN1c1nc(OC2CN(C)C2)nc2c1CCN(c1cccc3cccc(Cl)c13)C2 [Compound 74]	–	–	–	100 to 1000	100 to 1000	0.1 to 1	1 to 10	–	–	–
C[C@@H]1Cn2cnc(F)c2CN1c1nc(OC[C@@H]2CCCN2C)nc2c1CCN(c1cc(NC(=O)OC(C)(C)C)cc3cccc(Cl)c13)C2 [Compound 109]	–	–	–	100 to 1000	100 to 1000	1 to 10	1 to 10	–	–	–
Cc1cccc(N)c1C(=O)Oc1cc(N2CCc3c(nc(OC[C@@H]4CCCN4C)nc3N3Cc4c(F)ncn4C[C@H]3C)C2)c2c(Cl)cccc2c1 [Compound 102]	–	–	–	≤ 100	≤ 100	≤ 0.1	≤ 0.1	–	–	–
C[C@@H]1Cn2cnc(F)c2CN1c1nc(OC[C@@H]2CCCN2C)nc2c1CCN(c1cccc3cccc(F)c13)C2 [Compound 106]	–	–	–	≤ 100	≤ 100	≤ 0.1	≤ 0.1	–	–	–
C[C@@H]1Cn2cncc2CN1c1nc(OC[C@H]2CCCN2C)nc2c1CCN(c1cccc3cccc(Cl)c13)C2 [Compound 58]	–	–	–	≤ 100	≤ 100	≤ 0.1	0.1 to 1	–	–	–
C[C@@H]1Cn2cnc(F)c2CN1c1nc(OC[C@@H]2CCCN2C)nc2c1CCN(c1cc(N)cc3cccc(Cl)c13)C2 [Compound 110]	–	–	–	≤ 100	≤ 100	≤ 0.1	≤ 0.1	–	–	–
C[C@@H]1Cn2cnc(F)c2CN1c1nc(OC[C@@H]2CCCN2C)nc2c1CCN(c1cc(O)cc3cccc(Cl)c13)C2 [Compound 78]	–	–	–	≤ 100	≤ 100	≤ 0.1	≤ 0.1	–	–	–
C[C@@H]1Cn2cncc2CN1c1nc(O[C@@H]2CCN(C)C2)nc2c1CCN(c1cccc3cccc(Cl)c13)C2 [Compound 57]	–	–	–	≤ 100	≤ 100	≤ 0.1	0.1 to 1	–	–	–
CC1Cc2[nH]ncc2CN1c1nc(OC[C@@H]2CCCN2C)nc2c1CCN(c1cccc3cccc(Cl)c13)C2 (stereo partly drawn) [Compound 118]	–	–	–	≤ 100	≤ 100	0.1 to 1	0.1 to 1	–	–	–
C[C@@H]1Cn2cnc(F)c2CN1c1nc(OC[C@@H]2CCCN2C)nc2cc(-c3cc(OC(=O)C(C)(C)C)cc4cccc(Cl)c34)ccc12 [Compound 92]	–	–	–	≤ 100	≤ 100	≤ 0.1	≤ 0.1	–	–	–
CN1CCC[C@H]1COc1nc2c(c(N3CCc4cnoc4C3)n1)CCN(c1cccc3cccc(Cl)c13)C2 [Comparative compound 1′, reference compound]	> 10	> 10	> 10	–	–	–	–	17.2	22.7	39.7
C[C@@H]1Cn2cnc(F)c2CN1c1nc(OC[C@@H]2CCCN2C)nc2c1CCN(c1cc(F)cc3cccc(Cl)c13)C2 [Compound 117]	–	–	–	≤ 100	≤ 100	≤ 0.1	≤ 0.1	–	–	–
[2H]C([2H])([2H])N1CCC[C@H]1COc1nc2c(c(N3Cc4cncn4C[C@H]3C)n1)CCN(c1cccc3cccc(Cl)c13)C2 [Compound 77]	–	–	–	≤ 100	≤ 100	≤ 0.1	≤ 0.1	–	–	–

Source: patent US20230391785A1, “NITROGEN-CONTAINING HETEROCYCLIC COMPOUND, METHOD FOR PREPARING SAME AND USE OF SAME” (280 Bio, Inc., priority 2021, published 2023)
